The Kinase Knowledgebase extract (Sharma et al. 2016)

The compounds below were run against CDK2 (human) (UniProt P24941) (assay: Enzyme Assay).

SMILES | IC50 [µM]
O=C(Nc1c[nH]nc1-c1nc2cc(CN3CCOCC3)ccc2[nH]1)Nc1c(F)cc(F)cc1F | < 1
O=C(Nc1ccc(F)cc1F)Nc1c[nH]nc1-c1nc2cc(CN3CCOCC3)ccc2[nH]1 | < 1
COc1cc2nc(-c3n[nH]cc3NC(=O)c3ccoc3CN(C)C)[nH]c2cc1OC | < 1
COc1cc2nc(-c3n[nH]cc3NC(=O)c3cc(Cl)cc(N4CCN(C)CC4)c3)[nH]c2cc1OC | < 1
COc1ccc(Cl)cc1C(=O)Nc1c[nH]nc1-c1nc2cc(CN3CCN(C)CC3)ccc2[nH]1 | < 1
COc1ccc(C#N)cc1C(=O)Nc1c[nH]nc1-c1nc2cc(CN3CCOCC3)ccc2[nH]1 | < 1
O=C(Nc1cc(F)ccc1F)Nc1c[nH]nc1-c1nc2cc(CN3CCOCC3)ccc2[nH]1 | < 1

The next lines start with the values.

IC50 [µM] | SMILES
< 1 | O=C(CC1CC1)Nc1c[nH]nc1-c1nc2cc(CN3CCOCC3)ccc2[nH]1
< 1 | O=C(Nc1c[nH]nc1-c1nc2cc(CN3CCOCC3)ccc2[nH]1)NN1CCCC1
< 1 | O=C(Nc1c[nH]nc1-c1nc2cc(CN3CCOCC3)ccc2[nH]1)C1CCCO1 (configuration not stated)
< 1 | CN(C)NC(=O)Nc1c[nH]nc1-c1nc2cc(CN3CCOCC3)ccc2[nH]1
< 1 | O=C(Nc1c[nH]nc1-c1nc2cc(CN3CCOCC3)ccc2[nH]1)NN1CCOCC1
